# In PubChem BioAssay (NCI):
#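 Where inhibition never reached the appropriate level, the endpoint shown equals the highest concentration tested. Otherwise, values were interpolated linearly from a five-concentration, 48-hour dose response in 96-well plates. The concentration for full growth arrest is given as TGI.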
# Columns and labels:
# Assay in all cases: DTP human tumour cell line panel, 48 h
# [1] = system: 786-0 renal
# [2] = system: A498 renal
# [3] = system: A549 NSCLC
# [4] = system: ACHN renal
# [5] = system: BT-549 breast
# [6] = system: CAKI-1 renal
# [7] = system: CCRF-CEM leukemia
# [8] = system: COLO 205 colon
# [9] = system: DU-145 prostate
# [10] = system: EKVX NSCLC
# [11] = system: HCC-2998 colon
# [12] = system: HCT-116 colon
# [13] = system: HCT-15 colon
# [14] = system: HL-60(TB) leukemia
# [15] = system: HOP-62 NSCLC
# [16] = system: HOP-92 NSCLC
# [17] = system: HS 578T breast
# [18] = system: HT29 colon
# [19] = system: IGROV1 ovarian
# [20] = system: K-562 leukemia
# [21] = system: KM12 colon
# [22] = system: LOX IMVI melanoma
# [23] = system: M14 melanoma
# [24] = system: MALME-3M melanoma
# [25] = system: MCF7 breast
# [26] = system: MDA-MB-231 breast
# [27] = system: MDA-MB-435
# [28] = system: MDA-N
# [29] = system: MOLT-4 leukemia
# [30] = system: NCI-H226 lung
# [31] = system: NCI-H23 lung
# [32] = system: NCI-H460 lung
# [33] = system: NCI-H522 lung
# [34] = system: NCI/ADR-RES ovarian
# [35] = system: OVCAR-3 ovarian
# [36] = system: OVCAR-5 ovarian
# [37] = system: OVCAR-8 ovarian
# [38] = system: PC-3 prostate
# [39] = system: RPMI-8226 leukemia
# [40] = system: RXF 393 renal
# [41] = system: SF-268 CNS
# [42] = system: SF-295 CNS
# [43] = system: SF-539 CNS
# [44] = system: SK-MEL-2 melanoma
# [45] = system: SK-MEL-28 melanoma
# [46] = system: SK-MEL-5 melanoma
# [47] = system: SK-OV-3 ovarian
# [48] = system: SN12C renal
# [49] = system: SNB-19 CNS
# [50] = system: SNB-75 CNS
# [51] = system: SR leukemia
# [52] = system: SW-620 colon
# [53] = system: T-47D breast
# [54] = system: TK-10 renal
# [55] = system: UACC-257 melanoma
# [56] = system: UACC-62 melanoma
# [57] = system: UO-31 renal
# [58] = system: OVCAR-4 ovarian
# [59] = system: U251 CNS
smiles,measurement,setting,value
NNC(=O)c1c(Cl)c(Cl)c(Cl)c(Cl)c1-c1nc2ccccc2[nH]1,TGI,[1],55.8 µM
same,TGI,[2],49.9 µM
same,TGI,[3],45.7 µM
same,TGI,[4],67.2 µM
same,TGI,[5],46.5 µM
same,TGI,[6],38 µM
same,TGI,[7],54.2 µM
same,TGI,[8],62 µM
same,TGI,[9],38.3 µM
same,TGI,[10],45.3 µM
same,TGI,[11],22.5 µM
same,TGI,[12],32.6 µM
same,TGI,[13],40.9 µM
same,TGI,[14],38.1 µM
same,TGI,[15],21.4 µM
same,TGI,[16],43.9 µM
same,TGI,[17],86.8 µM
same,TGI,[18],61.8 µM
same,TGI,[19],27.7 µM
same,TGI,[20],26 µM
same,TGI,[21],29.1 µM
same,TGI,[22],30.3 µM
same,TGI,[23],23.6 µM
same,TGI,[24],37.9 µM
same,TGI,[25],23 µM
same,TGI,[26],> 100 µM
same,TGI,[27],6.38 µM
same,TGI,[28],18.9 µM
same,TGI,[29],26.3 µM
same,TGI,[30],65.4 µM
same,TGI,[31],59.5 µM
same,TGI,[32],31 µM
same,TGI,[33],> 100 µM
same,TGI,[34],59.8 µM
same,TGI,[35],24.4 µM
same,TGI,[36],> 100 µM
same,TGI,[37],> 100 µM
same,TGI,[38],> 100 µM
same,TGI,[39],> 100 µM
same,TGI,[40],21.9 µM
same,TGI,[41],> 100 µM
same,TGI,[42],24 µM
same,TGI,[43],> 100 µM
same,TGI,[44],29.4 µM
same,TGI,[45],53.4 µM
same,TGI,[46],29.9 µM
same,TGI,[47],59.2 µM
same,TGI,[48],> 100 µM
same,TGI,[49],88.8 µM
same,TGI,[50],38.2 µM
same,TGI,[51],15.6 µM
same,TGI,[52],67.6 µM
same,TGI,[53],24 µM
same,TGI,[54],63.2 µM
same,TGI,[55],28.1 µM
same,TGI,[56],24.7 µM
same,TGI,[57],39.5 µM
COC(=O)c1ccccc1NC(=O)/C(=N\NC(C)(C)C)C(C#N)c1nc(-c2ccc([N+](=O)[O-])cc2)cs1 (stereo not drawn),TGI,[1],> 100 µM
same,TGI,[2],> 100 µM
same,TGI,[3],> 100 µM
same,TGI,[4],> 100 µM
same,TGI,[5],> 100 µM
same,TGI,[6],> 100 µM
same,TGI,[7],> 100 µM
same,TGI,[8],> 100 µM
same,TGI,[9],> 100 µM
same,TGI,[10],> 100 µM
same,TGI,[11],> 100 µM
same,TGI,[12],> 100 µM
same,TGI,[13],> 100 µM
same,TGI,[14],> 100 µM
same,TGI,[16],> 100 µM
same,TGI,[17],> 100 µM
same,TGI,[18],> 100 µM
same,TGI,[19],> 100 µM
same,TGI,[20],> 100 µM
same,TGI,[21],> 100 µM
same,TGI,[22],> 100 µM
same,TGI,[23],> 100 µM
same,TGI,[24],> 100 µM
same,TGI,[25],> 100 µM
same,TGI,[26],> 100 µM
same,TGI,[27],> 100 µM
same,TGI,[28],> 100 µM
same,TGI,[29],> 100 µM
same,TGI,[30],> 100 µM
same,TGI,[31],> 100 µM
same,TGI,[32],> 100 µM
same,TGI,[34],> 100 µM
same,TGI,[35],> 100 µM
same,TGI,[58],> 100 µM
same,TGI,[36],> 100 µM
same,TGI,[37],> 100 µM
same,TGI,[38],> 100 µM
same,TGI,[39],> 100 µM
same,TGI,[40],> 100 µM
same,TGI,[41],> 100 µM
same,TGI,[42],> 100 µM
same,TGI,[43],> 100 µM
same,TGI,[44],> 100 µM
same,TGI,[45],> 100 µM
same,TGI,[46],> 100 µM
same,TGI,[47],> 100 µM
same,TGI,[48],> 100 µM
same,TGI,[49],> 100 µM
same,TGI,[50],> 100 µM
same,TGI,[51],> 100 µM
same,TGI,[52],> 100 µM
same,TGI,[53],> 100 µM
same,TGI,[59],> 100 µM
same,TGI,[55],> 100 µM
same,TGI,[56],> 100 µM
same,TGI,[57],> 100 µM
